The results in this text go back to ChEMBL document CHEMBL4342475, “Structure-Bioactivity Relationships of Lapatinib Derived Analogs against Schistosoma mansoni” (ACS Med Chem Lett, 2020).

The source made the active and inactive calls. The calls are words filed in the database; no cut-off is given here.

The test system of the first data set is Schistosoma mansoni. Briefly: Antiparasitic activity against Schistosoma mansoni infected in Hamster assessed as severity score at 10 uM incubated for 48 hrs. The format is functional, organism-based.
Conditions: not given
For `Cc1cnc(Nc2ccnc3cc(-c4cnc(N5CCN(C)CC5)nc4)ccc23)cn1`, the result was Active.
On the same count and under the same terms, as for `CN(CCNc1ncc(-c2ccc3c(Nc4cnccn4)ccnc3c2)cn1)C(=O)OC(C)(C)C`, the entry is “Active”; as for `COc1ccc(NC(=O)c2ccc(-c3cccc(N4CCOCC4)c3)cc2N)cc1Cl`, “inactive”.
On the same count and under the same terms, the entry for `CN1CCCN(S(=O)(=O)c2ccc(-c3ccc4c(Nc5ccc(Cl)cn5)ccnc4c3)cc2)CC1` is “inactive”; for `CCCN1CCN(c2ncc(-c3ccc4c(Nc5cnccn5)ccnc4c3)cn2)CC1` it is “Active”; for `c1cnc(Nc2ccnc3cc(-c4cnc(N5CCCNCC5)nc4)ccc23)cn1` it is “inactive”.
`CCN1CCN(c2ncc(-c3ccc4c(Nc5cnccn5)ccnc4c3)cn2)CC1`: the result was inactive.
Turning to `CCN1CCCN(c2ncc(-c3ccc4c(Nc5cnccn5)ccnc4c3)cn2)CC1`, the result was inactive.
As to `c1cc(-c2ccc3c(c2)ncc2c4ccccc4[nH]c32)cc(N2CCOCC2)c1`, the outcome was inactive.
Same read-out and setting: the entry for `COc1ccc(Nc2ccnc3cc(-c4ccc(S(=O)(=O)N5CCCN(C)CC5)cc4)ccc23)cc1Cl` is “inactive”.
The same measure, in the same setting: the entry for `COc1ccc(NC(=O)c2ccc(-c3cccc(N4CCOCC4)c3)cc2O)cc1Cl` is “Active”; for `CN1CCN(c2ncc(-c3ccc4c(N[C@@H]5CCCC[C@H]5O)ccnc4c3)cn2)CC1` it is “inactive”.
The same measure, in the same setting: as for `CN1CCCN(c2ncc(-c3ccc4c(c3)ncc3c5ccccc5[nH]c43)cn2)CC1`, the entry is “Active”; as for `CN1CCN(c2ncc(-c3ccc4c(Nc5cnccn5)ccnc4c3)cn2)CC1`, “inactive”.
With `Cc1c(-c2cnc(N3CCN(C)CC3)nc2)ccc2c(Nc3cnccn3)ccnc12`, the result was inactive.
On the same count and under the same terms, the entry for `O=C(O)CN1CCN(c2ncc(-c3ccc4c(Nc5cnccn5)ccnc4c3)cn2)CC1` is “inactive”.

The test system of the next data set is Schistosoma mansoni. Briefly: Antiparasitic activity against Schistosoma mansoni infected in Hamster assessed as severity score at 10 uM incubated for 5 hrs.
Conditions: not given
The format is functional, organism-based.
For the molecule `COc1ccc(NC(=O)c2ccc(-c3cnc(N4CCN(C)CC4)nc3)cc2O)cc1Cl`, the outcome was inactive.
On the same count and under the same terms, as for `COc1ccc(NC(=O)c2ccc(-c3ccc(S(=O)(=O)N4CCN(C)CC4)cc3)cc2O)cc1Cl`, the entry is “inactive”; as for `Cc1cnc(Nc2ccnc3cc(-c4cnc(N5CCN(C)CC5)nc4)ccc23)cn1`, “Active”; as for `CN(CCNc1ncc(-c2ccc3c(Nc4cnccn4)ccnc3c2)cn1)C(=O)OC(C)(C)C`, “inactive”.
The same measure, in the same setting: the entry for `COc1ccc(NC(=O)c2ccc(-c3cccc(N4CCOCC4)c3)cc2N)cc1Cl` is “inactive”; for `CN1CCCN(S(=O)(=O)c2ccc(-c3ccc4c(Nc5ccc(Cl)cn5)ccnc4c3)cc2)CC1` it is “inactive”; for `CCCN1CCN(c2ncc(-c3ccc4c(Nc5cnccn5)ccnc4c3)cn2)CC1` it is “inactive”.
Same read-out and setting: the entry for `c1cnc(Nc2ccnc3cc(-c4cnc(N5CCCNCC5)nc4)ccc23)cn1` is “inactive”; for `CCN1CCN(c2ncc(-c3ccc4c(Nc5cnccn5)ccnc4c3)cn2)CC1` it is “inactive”; for `CCN1CCCN(c2ncc(-c3ccc4c(Nc5cnccn5)ccnc4c3)cn2)CC1` it is “inactive”.
With `c1cc(-c2ccc3c(c2)ncc2c4ccccc4[nH]c32)cc(N2CCOCC2)c1`, the result was inactive.
Still for that read-out and setting: as for `COc1ccc(Nc2ccnc3cc(-c4ccc(S(=O)(=O)N5CCCN(C)CC5)cc4)ccc23)cc1Cl`, the entry is “inactive”; as for `COc1ccc(NC(=O)c2ccc(-c3cccc(N4CCOCC4)c3)cc2O)cc1Cl`, “inactive”; as for `CN1CCN(c2ncc(-c3ccc4c(N[C@@H]5CCCC[C@H]5O)ccnc4c3)cn2)CC1`, “inactive”.
Regarding `CN1CCCN(c2ncc(-c3ccc4c(c3)ncc3c5ccccc5[nH]c43)cn2)CC1`, the outcome was inactive.
In the case of `CN1CCN(c2ncc(-c3ccc4c(Nc5cnccn5)ccnc4c3)cn2)CC1`, the outcome was inactive.
Same read-out and setting: the entry for `Cc1c(-c2cnc(N3CCN(C)CC3)nc2)ccc2c(Nc3cnccn3)ccnc12` is “inactive”.
In the case of `O=C(O)CN1CCN(c2ncc(-c3ccc4c(Nc5cnccn5)ccnc4c3)cn2)CC1`, the result was inactive.

In another data set the test system is Schistosoma mansoni. Briefly: Antiparasitic activity against Schistosoma mansoni infected in Hamster assessed as severity score at 10 uM incubated for 1 hr. The format is functional, organism-based.
Conditions: not given
With `COc1ccc(NC(=O)c2ccc(-c3cnc(N4CCN(C)CC4)nc3)cc2O)cc1Cl`, the result was inactive.
Consider `COc1ccc(NC(=O)c2ccc(-c3ccc(S(=O)(=O)N4CCN(C)CC4)cc3)cc2O)cc1Cl`, for which the outcome was inactive.
Regarding `Cc1cnc(Nc2ccnc3cc(-c4cnc(N5CCN(C)CC5)nc4)ccc23)cn1`, the outcome was inactive.
`CN(CCNc1ncc(-c2ccc3c(Nc4cnccn4)ccnc3c2)cn1)C(=O)OC(C)(C)C`: the outcome was inactive.
Consider `COc1ccc(NC(=O)c2ccc(-c3cccc(N4CCOCC4)c3)cc2N)cc1Cl`, for which the result was inactive.
On the same count and under the same terms, as for `CN1CCCN(S(=O)(=O)c2ccc(-c3ccc4c(Nc5ccc(Cl)cn5)ccnc4c3)cc2)CC1`, the entry is “inactive”; as for `CCCN1CCN(c2ncc(-c3ccc4c(Nc5cnccn5)ccnc4c3)cn2)CC1`, “inactive”.
Regarding `c1cnc(Nc2ccnc3cc(-c4cnc(N5CCCNCC5)nc4)ccc23)cn1`, the outcome was inactive.
As to `CCN1CCN(c2ncc(-c3ccc4c(Nc5cnccn5)ccnc4c3)cn2)CC1`, the result was inactive.
Still for that read-out and setting: the entry for `CCN1CCCN(c2ncc(-c3ccc4c(Nc5cnccn5)ccnc4c3)cn2)CC1` is “inactive”; for `c1cc(-c2ccc3c(c2)ncc2c4ccccc4[nH]c32)cc(N2CCOCC2)c1` it is “inactive”.
Same read-out and setting: the entry for `COc1ccc(Nc2ccnc3cc(-c4ccc(S(=O)(=O)N5CCCN(C)CC5)cc4)ccc23)cc1Cl` is “inactive”; for `CN1CCN(c2ncc(-c3ccc4c(N[C@@H]5CCCC[C@H]5O)ccnc4c3)cn2)CC1` it is “inactive”.
Turning to `CN1CCCN(c2ncc(-c3ccc4c(c3)ncc3c5ccccc5[nH]c43)cn2)CC1`, the outcome was inactive.
On to `CN1CCN(c2ncc(-c3ccc4c(Nc5cnccn5)ccnc4c3)cn2)CC1`, for which the result was inactive.
Consider `Cc1c(-c2cnc(N3CCN(C)CC3)nc2)ccc2c(Nc3cnccn3)ccnc12`, for which the result was inactive.
Same read-out and setting: the entry for `O=C(O)CN1CCN(c2ncc(-c3ccc4c(Nc5cnccn5)ccnc4c3)cn2)CC1` is “inactive”.

Another data set relates to Schistosoma mansoni. Briefly: Antiparasitic activity against Schistosoma mansoni infected in Hamster assessed as severity score at 10 uM incubated for 24 hrs.
Conditions: not given
The data set is classed as functional, organism-based.
For `COc1ccc(NC(=O)c2ccc(-c3cnc(N4CCN(C)CC4)nc3)cc2O)cc1Cl`, the result was inactive.
Regarding `COc1ccc(NC(=O)c2ccc(-c3ccc(S(=O)(=O)N4CCN(C)CC4)cc3)cc2O)cc1Cl`, the result was inactive.
Same read-out and setting: as for `Cc1cnc(Nc2ccnc3cc(-c4cnc(N5CCN(C)CC5)nc4)ccc23)cn1`, the entry is “Active”; as for `CN(CCNc1ncc(-c2ccc3c(Nc4cnccn4)ccnc3c2)cn1)C(=O)OC(C)(C)C`, “inactive”.
On the same count and under the same terms, the entry for `COc1ccc(NC(=O)c2ccc(-c3cccc(N4CCOCC4)c3)cc2N)cc1Cl` is “inactive”; for `CN1CCCN(S(=O)(=O)c2ccc(-c3ccc4c(Nc5ccc(Cl)cn5)ccnc4c3)cc2)CC1` it is “inactive”; for `CCCN1CCN(c2ncc(-c3ccc4c(Nc5cnccn5)ccnc4c3)cn2)CC1` it is “inactive”.
The same measure, in the same setting: the entry for `c1cnc(Nc2ccnc3cc(-c4cnc(N5CCCNCC5)nc4)ccc23)cn1` is “inactive”; for `CCN1CCN(c2ncc(-c3ccc4c(Nc5cnccn5)ccnc4c3)cn2)CC1` it is “inactive”.
On to `CCN1CCCN(c2ncc(-c3ccc4c(Nc5cnccn5)ccnc4c3)cn2)CC1`, for which the outcome was inactive.
Consider `c1cc(-c2ccc3c(c2)ncc2c4ccccc4[nH]c32)cc(N2CCOCC2)c1`, for which the result was inactive.
Take `COc1ccc(Nc2ccnc3cc(-c4ccc(S(=O)(=O)N5CCCN(C)CC5)cc4)ccc23)cc1Cl`: the outcome was inactive.
Still for that read-out and setting: the entry for `CN1CCN(c2ncc(-c3ccc4c(N[C@@H]5CCCC[C@H]5O)ccnc4c3)cn2)CC1` is “inactive”; for `CN1CCCN(c2ncc(-c3ccc4c(c3)ncc3c5ccccc5[nH]c43)cn2)CC1` it is “inactive”; for `CN1CCN(c2ncc(-c3ccc4c(Nc5cnccn5)ccnc4c3)cn2)CC1` it is “inactive”.
Consider `Cc1c(-c2cnc(N3CCN(C)CC3)nc2)ccc2c(Nc3cnccn3)ccnc12`, for which the result was inactive.
Consider `O=C(O)CN1CCN(c2ncc(-c3ccc4c(Nc5cnccn5)ccnc4c3)cn2)CC1`, for which the result was inactive.

System in the next data set: not listed separately
Nature of the data set: Cytotoxicity against human HepG2 cells assessed as reduction in cell viability 48 hrs by MTT assay. The format is cell-based. As to conditions: read-out: TC50. (In general: Formazan colour is commonly taken as a measure of viable cells.)
In the case of `COc1ccc(NC(=O)c2ccc(-c3cnc(N4CCN(C)CC4)nc3)cc2O)cc1Cl`, the CC50 at 48 h came to 27 µM.
On the same count and under the same terms, as for `COc1ccc(NC(=O)c2ccc(-c3ccc(S(=O)(=O)N4CCN(C)CC4)cc3)cc2O)cc1Cl`, the figure is above 29 µM.
The same measure, in the same setting: the figure for `Cc1cnc(Nc2ccnc3cc(-c4cnc(N5CCN(C)CC5)nc4)ccc23)cn1` is 16 µM.
Same read-out and setting: as for `COc1ccc(NC(=O)c2ccc(-c3cccc(N4CCOCC4)c3)cc2N)cc1Cl`, the figure is 35 µM; as for `CN1CCCN(S(=O)(=O)c2ccc(-c3ccc4c(Nc5ccc(Cl)cn5)ccnc4c3)cc2)CC1`, 1.8 µM; as for `c1cnc(Nc2ccnc3cc(-c4cnc(N5CCCNCC5)nc4)ccc23)cn1`, 25 µM.
In the case of `CCN1CCCN(c2ncc(-c3ccc4c(Nc5cnccn5)ccnc4c3)cn2)CC1`, the CC50 at 48 h is above 36 µM.
The same measure, in the same setting: the figure for `c1cc(-c2ccc3c(c2)ncc2c4ccccc4[nH]c32)cc(N2CCOCC2)c1` is 40 µM; for `COc1ccc(Nc2ccnc3cc(-c4ccc(S(=O)(=O)N5CCCN(C)CC5)cc4)ccc23)cc1Cl` it is 11 µM; for `COc1ccc(NC(=O)c2ccc(-c3cccc(N4CCOCC4)c3)cc2O)cc1Cl` it is 35 µM.
Turning to `CN1CCCN(c2ncc(-c3ccc4c(c3)ncc3c5ccccc5[nH]c43)cn2)CC1`, the CC50 at 48 h was 7.4 µM.
`O=C(O)CN1CCN(c2ncc(-c3ccc4c(Nc5cnccn5)ccnc4c3)cn2)CC1`: the CC50 at 48 h is above 30 µM.
